Measured values published in patent publication US20120276225A1, “PHYTOESTROGENIC NUTRACEUTICAL COMPOSITION FROM PALM LEAF EXTRACT” (UNIVERSITI PUTRA MALAYSIA, priority 2009, published 2012).

Key:
[1] = system: vaginal epithelium in the immature female mice; conditions: cited from earlier work
[2] = system: vaginal epithelium and uterus of ovarectomized female Sprague-Dawley rats; experiment: Estrogenic activity in bilaterally ovarectomized rats (vaginal cornification, uterine wet weight); assay type: in vivo, rat; conditions: positive control gavaged daily 5 mg/kg BW
Method: Phytoestrogenic enhancing activities of PLE were evaluated in normal and ovariectomised rats at 150 and 300 mg/kg doses. Estrogenic activity of the alcoholic extract was assessed in bilaterally ovarectomized female Sprague-Dawley rats taking percentage vaginal cornification, and uterine wet weight as parameters of assessment. Ovarectomized female rats (9 rats per group) given distilled water were used as a negative control, while rats gavaged daily with 5 mg/kg BW diethylstilbesterol were used as a positive control. At the end of treatment period of 14 days, rats were euthanized; the uteri were dissected and weighed, thereafter.

Row | Structure (SMILES) | cornification of the vaginal epithelium [1] | cornification of the vaginal epithelium [2]
1 | CC1(C)[C@H]2C(=COc3cc(O)ccc32)[C@]2(O)C(=O)C[C@]3(O)C[C@H]1[C@H]2[C@H]3O [Miroestrol] | produced cornification of the vaginal epithelium | –
2 | CC/C(=C(/CC)c1ccc(O)cc1)c1ccc(O)cc1 [synthetic estrogen, diethylstilbesterol] | – | induced a cornification of the vaginal epithelium as early as the third day of treatment
